Measured values: the NIST ThermoML archive (doi:10.1021/je800571y)
Numbers after ± are expanded uncertainties.

Columns and labels:
[1] = xn = mol fraction of the nth substance listed; settings: 101 kPa, Liquid
[2] = 101 kPa, Liquid

Row | Compound | mass density ([1]; 293.15 K, x2 = 0) | viscosity ([1]; 293.15 K, x2 = 0) | mass density ([1]; 298.15 K, x2 = 0) | viscosity ([1]; 298.15 K, x2 = 0) | mass density ([1]; 303.15 K, x2 = 0) | viscosity ([1]; 303.15 K, x2 = 0) | mass density ([1]; 308.15 K, x2 = 0) | viscosity ([1]; 308.15 K, x2 = 0) | mass density ([1]; 313.15 K, x2 = 0) | viscosity ([1]; 313.15 K, x2 = 0) | mass density ([2]; 293.15 K) | mass density ([2]; 298.15 K) | viscosity ([2]; 298.15 K) | mass density ([2]; 303.15 K) | viscosity ([2]; 303.15 K) | mass density ([2]; 308.15 K) | viscosity ([2]; 308.15 K) | mass density ([2]; 313.15 K) | viscosity ([2]; 313.15 K) | viscosity ([2]; 293.15 K) | further results
1 | CCC(C)O (centres undefined) [butan-2-ol] + CCC(C)=O | 806.48 ± 1 kg/m3 | 3.632 ± 0.64 mPa·s | 802.35 ± 1 kg/m3 | 2.998 ± 0.54 mPa·s | 798.96 ± 1.1 kg/m3 | 2.498 ± 0.45 mPa·s | 794.18 ± 1.1 kg/m3 | 2.054 ± 0.38 mPa·s | 790.07 ± 1.1 kg/m3 | 1.799 ± 0.33 mPa·s | – | – | – | – | – | – | – | – | – | – | –
2 | CCC(C)=O [butanone] | – | – | – | – | – | – | – | – | – | – | 804.92 ± 1.1 kg/m3 | 799.7 ± 1.1 kg/m3 | 0.2828 ± 0.074 mPa·s | 794.81 ± 1.1 kg/m3 | 0.2666 ± 0.071 mPa·s | 789.78 ± 1.2 kg/m3 | 0.2601 ± 0.07 mPa·s | 784.32 ± 1.2 kg/m3 | 0.2545 ± 0.069 mPa·s | – | –
3 | CC(C)O [propan-2-ol] | – | – | – | – | – | – | – | – | – | – | 785.45 ± 0.99 kg/m3 | 781.26 ± 0.98 kg/m3 | 1.91 ± 0.35 mPa·s | 777.97 ± 1.1 kg/m3 | 1.737 ± 0.32 mPa·s | 772.59 ± 1.1 kg/m3 | 1.524 ± 0.29 mPa·s | 768.32 ± 1.1 kg/m3 | 1.347 ± 0.26 mPa·s | 2.226 ± 0.41 mPa·s | –
4 | CC(C)CO [2-methyl-1-propanol] + CCC(C)=O | 801.68 ± 0.98 kg/m3 | 4.037 ± 0.71 mPa·s | 797.8 ± 1 kg/m3 | 3.33 ± 0.59 mPa·s | 794.16 ± 1.1 kg/m3 | 2.875 ± 0.52 mPa·s | 790.06 ± 1.1 kg/m3 | 2.421 ± 0.44 mPa·s | 786.7 ± 1.1 kg/m3 | 1.967 ± 0.36 mPa·s | – | – | – | – | – | – | – | – | – | – | –
5 | CC(C)O [propan-2-ol] + CCC(C)=O | 785.45 ± 0.99 kg/m3 | 2.226 ± 0.41 mPa·s | 781.26 ± 0.98 kg/m3 | 1.91 ± 0.35 mPa·s | 777.97 ± 1.1 kg/m3 | 1.737 ± 0.32 mPa·s | 772.59 ± 1.1 kg/m3 | 1.524 ± 0.29 mPa·s | 768.32 ± 1.1 kg/m3 | 1.347 ± 0.26 mPa·s | – | – | – | – | – | – | – | – | – | – | –
6 | CCC(C)(C)O [2-methylbutan-2-ol] | – | – | – | – | – | – | – | – | – | – | 809.61 ± 1.1 kg/m3 | 805.01 ± 1.1 kg/m3 | 4.474 ± 0.78 mPa·s | 800.41 ± 1.1 kg/m3 | 3.909 ± 0.69 mPa·s | 795.81 ± 1.1 kg/m3 | 3.387 ± 0.6 mPa·s | 791.21 ± 1.2 kg/m3 | 2.909 ± 0.52 mPa·s | 5.108 ± 0.88 mPa·s | –
7 | CCC(C)O (centres undefined) [butan-2-ol] | – | – | – | – | – | – | – | – | – | – | 806.48 ± 1 kg/m3 | 802.35 ± 1 kg/m3 | 2.998 ± 0.54 mPa·s | 798.96 ± 1.1 kg/m3 | 2.498 ± 0.45 mPa·s | 794.18 ± 1.1 kg/m3 | 2.054 ± 0.38 mPa·s | 790.07 ± 1.1 kg/m3 | 1.799 ± 0.33 mPa·s | 3.632 ± 0.64 mPa·s | –
8 | CC(C)CO [2-methyl-1-propanol] | – | – | – | – | – | – | – | – | – | – | 801.68 ± 0.98 kg/m3 | 797.8 ± 1 kg/m3 | 3.33 ± 0.59 mPa·s | 794.16 ± 1.1 kg/m3 | 2.875 ± 0.52 mPa·s | 790.06 ± 1.1 kg/m3 | 2.421 ± 0.44 mPa·s | 786.7 ± 1.1 kg/m3 | 1.967 ± 0.36 mPa·s | 4.037 ± 0.71 mPa·s | –
9 | CCC(C)=O [butanone] + CCC(C)(C)O | – | – | – | – | – | – | – | – | – | – | – | – | – | – | – | – | – | – | – | – | mass density ([1]; 293.15 K, x1 = 1): 804.92 ± 1.1 kg/m3; viscosity ([1]; 293.15 K, x1 = 1): 0.3956 ± 0.093 mPa·s; mass density ([1]; 298.15 K, x1 = 1): 799.7 ± 1.1 kg/m3; viscosity ([1]; 298.15 K, x1 = 1): 0.2828 ± 0.074 mPa·s; mass density ([1]; 303.15 K, x1 = 1): 794.81 ± 1.1 kg/m3; viscosity ([1]; 303.15 K, x1 = 1): 0.2666 ± 0.071 mPa·s; mass density ([1]; 308.15 K, x1 = 1): 789.78 ± 1.2 kg/m3; viscosity ([1]; 308.15 K, x1 = 1): 0.2601 ± 0.07 mPa·s; mass density ([1]; 313.15 K, x1 = 1): 784.32 ± 1.2 kg/m3; viscosity ([1]; 313.15 K, x1 = 1): 0.2545 ± 0.069 mPa·s
